Experimental findings from PubChem BioAssay AID1259407 (Chemical Carcinogenesis Research Information System (CCRIS), 2018) are described below.

For the data set, the system named is CCRIS mutagenicity, Ames/micronucleus/aberration tests. Briefly: CCRIS mutagenicity studies.
Where [1] appears, read: Test System: AMES SALMONELLA TYPHIMURIUM, Strain/Indicator: TA98, Metabolic Activation: NONE, Method: STANDARD PLATE.
The mark [2] stands for this setting: Test System: AMES SALMONELLA TYPHIMURIUM, Strain/Indicator: TA100, Metabolic Activation: NONE, Method: STANDARD PLATE.

“Also recorded” adds a separate entry of the source. The source made the active and inactive calls. How the calls were made is not given here.

Take `Nc1ccc(Oc2ccc(N)cc2)cc1`: the mutagenic call reads like this: (End Point: IN VITRO CHROMOSOMAL ABERRATIONS, Test System: CHL CELLS, Metabolic Activation: NONE) “active; positive (structural changes); precipitation occurred at 1.3 and 5.0 mg/ml; also recorded: active; positive (structural changes); precipitation occurred at 1.7 and 5.0 mg/ml”; (End Point: IN VITRO CHROMOSOMAL ABERRATIONS, Test System: CHL CELLS, Metabolic Activation: RAT, LIVER, S-9, SODIUM PHENOBARBITAL AND 5,6-BENZOFLAVONE) “active; positive (structural changes); precipitation occurred at 1.7 mg/ml”; (End Point: IN VITRO CHROMOSOMAL ABERRATIONS, Test System: CHO CELLS, Metabolic Activation: RAT, LIVER, S-9, AROCLOR 1254) “active; positive; precipitation occurred at 1600 and 5000 ug/ml; also recorded: active; positive; precipitation occurred at 2000, 3000, 4000 and 5000 ug/ml”; (Test System: AMES SALMONELLA TYPHIMURIUM, Strain/Indicator: TA97, Metabolic Activation: HAMSTER, LIVER, S-9, AROCLOR 1254 (10%), Method: PREINCUBATION) “active; positive”; (Test System: AMES SALMONELLA TYPHIMURIUM, Strain/Indicator: TA97, Metabolic Activation: NONE, Method: PREINCUBATION) “inactive; negative”; (Test System: AMES SALMONELLA TYPHIMURIUM, Strain/Indicator: TA97, Metabolic Activation: RAT, LIVER, S-9, AROCLOR 1254 (10%), Method: PREINCUBATION) “active; positive”. Moreover, the mutagenic call was “active; positive” (Test System: AMES SALMONELLA TYPHIMURIUM, Strain/Indicator: TA98, Metabolic Activation: HAMSTER, LIVER, S-9, AROCLOR 1254 (10%), Method: PREINCUBATION); “inactive; negative” (Test System: AMES SALMONELLA TYPHIMURIUM, Strain/Indicator: TA98, Metabolic Activation: NONE, Method: FLUCTUATION (MICROTITER)); “inactive; negative” under setting [1]; “active; positive” (Test System: AMES SALMONELLA TYPHIMURIUM, Strain/Indicator: TA98, Metabolic Activation: RAT LIVER S-9, PHENOBARBITAL AND BETA-NAPHTHOFLAVONE, Method: PREINCUBATION); “active; positive” (Test System: AMES SALMONELLA TYPHIMURIUM, Strain/Indicator: TA98, Metabolic Activation: RAT, LIVER, S-9, AROCLOR 1254 (10%), Method: PREINCUBATION); “active; positive” (Test System: AMES SALMONELLA TYPHIMURIUM, Strain/Indicator: TA98, Metabolic Activation: RAT, LIVER, S-9, PCB, Method: PREINCUBATION). For the same compound, the mutagenic call runs as follows: (Test System: AMES SALMONELLA TYPHIMURIUM, Strain/Indicator: TA98, Metabolic Activation: RAT, LIVER, S-9, PCB, Method: STANDARD PLATE) “active; positive”; (Test System: AMES SALMONELLA TYPHIMURIUM, Strain/Indicator: TA100, Metabolic Activation: HAMSTER, LIVER, S-9, AROCLOR 1254 (10%), Method: PREINCUBATION) “active; positive”; under setting [2], “inactive; negative”; (Test System: AMES SALMONELLA TYPHIMURIUM, Strain/Indicator: TA100, Metabolic Activation: RAT LIVER S-9, PHENOBARBITAL AND BETA-NAPHTHOFLAVONE, Method: PREINCUBATION) “active; positive”; (Test System: AMES SALMONELLA TYPHIMURIUM, Strain/Indicator: TA100, Metabolic Activation: RAT, LIVER, S-9, AROCLOR 1254 (10%), Method: PREINCUBATION) “active; positive”; (Test System: AMES SALMONELLA TYPHIMURIUM, Strain/Indicator: TA100, Metabolic Activation: RAT, LIVER, S-9, PCB, Method: PREINCUBATION) “active; positive”. Moreover, the mutagenic call is, setting by setting: (Test System: AMES SALMONELLA TYPHIMURIUM, Strain/Indicator: TA100, Metabolic Activation: RAT, LIVER, S-9, PCB, Method: STANDARD PLATE) “active; positive”; (Test System: AMES SALMONELLA TYPHIMURIUM, Strain/Indicator: TA1535, Metabolic Activation: HAMSTER, LIVER, S-9, AROCLOR 1254 (10%), Method: PREINCUBATION) “active; positive”; (Test System: AMES SALMONELLA TYPHIMURIUM, Strain/Indicator: TA1535, Metabolic Activation: NONE, Method: PREINCUBATION) “inactive; negative”; (Test System: AMES SALMONELLA TYPHIMURIUM, Strain/Indicator: TA1535, Metabolic Activation: RAT LIVER S-9, PHENOBARBITAL AND BETA-NAPHTHOFLAVONE, Method: PREINCUBATION) “inactive; negative”; (Test System: AMES SALMONELLA TYPHIMURIUM, Strain/Indicator: TA1535, Metabolic Activation: RAT, LIVER, S-9, AROCLOR 1254 (10%), Method: PREINCUBATION) “inactive; negative”; (Test System: AMES SALMONELLA TYPHIMURIUM, Strain/Indicator: TA1537, Metabolic Activation: HAMSTER, LIVER, S-9, AROCLOR 1254 (10%), Method: PREINCUBATION) “active; positive”. The mutagenic call is “inactive; negative” (Test System: AMES SALMONELLA TYPHIMURIUM, Strain/Indicator: TA1537, Metabolic Activation: NONE, Method: FLUCTUATION (MICROTITER)); “inactive; negative” (Test System: AMES SALMONELLA TYPHIMURIUM, Strain/Indicator: TA1537, Metabolic Activation: NONE, Method: PREINCUBATION); “inactive; negative” (Test System: AMES SALMONELLA TYPHIMURIUM, Strain/Indicator: TA1537, Metabolic Activation: RAT LIVER S-9, PHENOBARBITAL AND BETA-NAPHTHOFLAVONE, Method: PREINCUBATION); “inactive; negative” (Test System: AMES SALMONELLA TYPHIMURIUM, Strain/Indicator: TA1537, Metabolic Activation: RAT, LIVER, S-9, AROCLOR 1254 (10%), Method: PREINCUBATION); “inactive; negative” (Test System: AMES SALMONELLA TYPHIMURIUM, Strain/Indicator: TA7001, Metabolic Activation: NONE, Method: FLUCTUATION (MICROTITER)); “inactive; negative” (Test System: AMES SALMONELLA TYPHIMURIUM, Strain/Indicator: TA7002, Metabolic Activation: NONE, Method: FLUCTUATION (MICROTITER)). Moreover, the mutagenic call was “inactive; negative” (Test System: AMES SALMONELLA TYPHIMURIUM, Strain/Indicator: TA7003, Metabolic Activation: NONE, Method: FLUCTUATION (MICROTITER)); “inactive; negative” (Test System: AMES SALMONELLA TYPHIMURIUM, Strain/Indicator: TA7004, Metabolic Activation: NONE, Method: FLUCTUATION (MICROTITER)); “active; positive” (Test System: AMES SALMONELLA TYPHIMURIUM, Strain/Indicator: TA7005, Metabolic Activation: NONE, Method: FLUCTUATION (MICROTITER)); “inactive; negative” (Test System: AMES SALMONELLA TYPHIMURIUM, Strain/Indicator: TA7006, Metabolic Activation: NONE, Method: FLUCTUATION (MICROTITER)); “inactive; negative” (Test System: E.COLI, Strain/Indicator: WP2UVRA, Metabolic Activation: NONE, Method: PREINCUBATION); “inactive; negative” (Test System: E.COLI, Strain/Indicator: WP2UVRA, Metabolic Activation: RAT LIVER S-9, PHENOBARBITAL AND BETA-NAPHTHOFLAVONE, Method: PREINCUBATION).
Take `O=C(c1ccc(-c2ccccc2)cc1)C1OC1c1ccccc1` (stereo not given): the mutagenic call is, setting by setting: under setting [1], “inactive; negative”; (Test System: AMES SALMONELLA TYPHIMURIUM, Strain/Indicator: TA98, Metabolic Activation: RAT, LIVER, S-9, AROCLOR 1254, Method: STANDARD PLATE) “inactive; negative”; under setting [2], “inactive; negative”; (Test System: AMES SALMONELLA TYPHIMURIUM, Strain/Indicator: TA100, Metabolic Activation: RAT, LIVER, S-9, AROCLOR 1254, Method: STANDARD PLATE) “inactive; negative”.
